“And” between values parts separate entries of the source, which are not always exact repeats. Equal values may be shown once. Read-outs that look alike come from different tables or passages of the source. Values belong to the compound of their own block, whether it stands above or below them.
Experiments:
MDCK-MDR1 cells [1] = details: MDCK-MDR1, pH 7.4
MDCK-MDR1 cells [2] = details: cited from earlier work
Caco-2 cells = assay: Model fits of pH-gradient Caco-2 data of Neuhoff et al. (2003)
Description: Error bars represent standard deviation.
Fit Parameters A: Neutral-Neutral B: Ionic-Ionic C: Neutral-Ionic […]
X Measurement of paracellular transport […]
assess its relative contribution to overall flux, it is necessary to quantify paracellular transport in some way. An approximation of paracellular transport can be mathematically calculated as desc ribed in […]
and cell type can influence and complicate the predictions, leading to uncertainties. H owever, it can also be experimentally measured provided that it can be assured that the P app would be dominated by the contribution of P para . […]
compounds. In order to ensure paracellular dominance, 2 µM elacridar was used to inhibit potential P-gp facilitated efflux, and the transport buffer was set to a pH that would severely restrict the neutral

MDCK-II-MDR1 cells [3] = tested on: MDCK-II-MDR1 cells
in vitro = details: dog
P-gp (MDR1) [4] = assay: in vitro; details: dog
[5] = Calculation of neutral fraction (fn); details: neutral fraction at pH 7.4
MDCK-MDR1 cells [6] = assay: Comparison of Papp,B-A with and without inhibitor in MDCK-MDR1 cells (own and literature data); details: pH 7.4 iso-method
P-gp (MDR1) [7] = assay: as above; details: dog, MDCK-MDR1, pH 7.4, with P-gp inhibitor (elacridar 2 µM in this study's P0 assays), Papp, inhibitor, This study; with inhibitor; pH 7.4 iso-method
MDCK-II-MDR1 cells [8] = details: intrinsic membrane permeability, calculated from Papp, A⟶B with elacridar
Description: Briefly, cells (passage 20–40) were seeded onto 12-well PET inserts (CellQART, Northeim, Germany; pore size: 0.4 μm; filter thickness: 11.5 μm, 100×10^6 pores/cm^2) at a density of 1.5×10^5 cells/insert. […] One day before the experiments, the cell medium was refreshed. For P0 determination, inserts were pre-incubated with the P-gp inhibitor elacridar (2 μM) for 30 min in HBSS pH 7.4. The transport rates in both directions of the test compounds were determined in duplicate or triplicate for 4–5 different pH values between pH 5 and pH 9. The transport buffer was HBSS buffered with 10 mM MES for pH 5 and 6, 25 mM HEPES for pH 7, 7.4 and 8, and 10 mM TAPS for pH 9. Stock solutions were prepared in the transport buffer and pre-warmed to 37 °C. Additional stock solutions with 2 μM elacridar were prepared at suitable pH values to measure P0 values in tandem. The pH of all buffer and stock solutions, as well as the pH of all samples after experiment completion, was controlled with a rapid pH automated pH meter (Hudson Robotics, Inc., Springfield, NJ, USA). Inserts were used in 12-well plates (TPP Techno Plastic Products AG, Trasadingen, Switzerland). […] Timestep length was determined individually for each compound and direction measured to ensure sink conditions. […]
to ensure that measured transport rates would not be affected by active efflux .

[9] = determined 25 °C; etoposide acidic, acebutolol basic; ref Avdeef, 2012; cited from earlier work
[10] = Neutral-Neutral assumption, gradient pH method, basolateral pH 7.4, fit of Neuhoff et al. 2003 data
[11] = with inhibitor, pH 7.4 iso-method, ref Troutman and Thakker (2003)
[12] = with inhibitor, pH 7.4 iso-method, ref Wang et al. (2005)
[13] = without inhibitor, pH 7.4 iso-method, ref Troutman and Thakker (2003)
[14] = without inhibitor, pH 7.4 iso-method, ref Wang et al. (2005)

Structure (SMILES): CC(C)N(CCC(c1ccccc1)c1cc(CO)ccc1O)C(C)C (stereo not shown) [5-Hydroxymethyl Tolterodine]
Factor difference (MDCK-MDR1 cells [1]): 6
Papp, B⟶A (MDCK-MDR1 cells [2]; MDCK-MDR1, pH 7.4): 63 ×10⁻⁶ cm/s
Papp, inhibitor (MDCK-MDR1 cells [2]; MDCK-MDR1, pH 7.4): 11 ×10⁻⁶ cm/s

Structure (SMILES): C[C@H]1O[C@@H](O[C@H]2[C@@H](O)C[C@H](O[C@H]3[C@@H](O)C[C@H](O[C@H]4CC[C@@]5(C)[C@H](CC[C@@H]6[C@@H]5C[C@@H](O)[C@]5(C)[C@@H](C7=CC(=O)OC7)CC[C@]65O)C4)O[C@@H]3C)O[C@@H]2C)C[C@H](O)[C@@H]1O [Digoxin]
Pb,app active (fitted) (Caco-2 cells; [10]): 51.6 ×10⁻⁶ cm/s
Ppara (fitted) (Caco-2 cells; [10]): 5.22 ×10⁻⁶ cm/s
P0 (Caco-2 cells; human, Caco-2): 2.69-06 cm/s
Ppgp,app active (fitted) (Caco-2 cells; human, Caco-2, pH 7.4): 63.9 ×10⁻⁶ cm/s
Pb active in Caco-2 fit compared with MDCK results (iso-pH method) (Caco-2 cells; neutral-neutral fit): one order of magnitude higher
logPapp, A⟶B (MDCK-II-MDR1 cells [3]; pH 5, iso-pH method): -6.27 P in cm/s
logPapp, B⟶A (MDCK-II-MDR1 cells [3]; pH 5, iso-pH method): -5.21 P in cm/s
logPapp, A⟶B (MDCK-II-MDR1 cells [3]; pH 6, iso-pH method): -6.29 P in cm/s
logPapp, B⟶A (MDCK-II-MDR1 cells [3]; pH 6, iso-pH method): -4.79 P in cm/s
logPapp, A⟶B (MDCK-II-MDR1 cells [3]; pH 7.4, iso-pH method): -6.23 P in cm/s
logPapp, B⟶A (MDCK-II-MDR1 cells [3]; pH 7.4, iso-pH method): -4.75 P in cm/s
logPapp, A⟶B (MDCK-II-MDR1 cells [3]; pH 8, iso-pH method): -6.14 P in cm/s
logPapp, B⟶A (MDCK-II-MDR1 cells [3]; pH 8, iso-pH method): -4.79 P in cm/s
logPapp, A⟶B (MDCK-II-MDR1 cells [3]; pH 9, iso-pH method): -5.72 P in cm/s
logPapp, B⟶A (MDCK-II-MDR1 cells [3]; pH 9, iso-pH method): -5.12 P in cm/s
recovery (in vitro; MDCK-MDR1, pH 5): 71 to 116%
recovery (in vitro; MDCK-MDR1, pH 6): 74 to 88%
recovery (in vitro; MDCK-MDR1, pH 7.4): 73 to 83%
recovery (in vitro; MDCK-MDR1, pH 8): 73 to 76%
recovery (in vitro; MDCK-MDR1, pH 9): 75 to 82%
Papp (P-gp (MDR1) [4]; MDCK-MDR1, pH 5): 0.53 ± 0.15 ×10⁻⁶ cm/s
Papp B→A (P-gp (MDR1) [4]; MDCK-MDR1, pH 5): 6.12 ± 1.9 ×10⁻⁶ cm/s
Papp (P-gp (MDR1) [4]; MDCK-MDR1, pH 6): 0.51 ± 0.12 ×10⁻⁶ cm/s
Papp B→A (P-gp (MDR1) [4]; MDCK-MDR1, pH 6): 16.3 ± 0.8 ×10⁻⁶ cm/s
Papp (P-gp (MDR1) [4]; MDCK-MDR1, pH 7.4): 0.59 ± 0.11 ×10⁻⁶ cm/s
Papp B→A (P-gp (MDR1) [4]; MDCK-MDR1, pH 7.4): 17.8 ± 2.8 ×10⁻⁶ cm/s
Papp (P-gp (MDR1) [4]; MDCK-MDR1, pH 8): 0.72 ± 0.13 ×10⁻⁶ cm/s
Papp B→A (P-gp (MDR1) [4]; MDCK-MDR1, pH 8): 16.3 ± 2 ×10⁻⁶ cm/s
Papp (P-gp (MDR1) [4]; MDCK-MDR1, pH 9): 1.9 ± 0.32 ×10⁻⁶ cm/s
Papp B→A (P-gp (MDR1) [4]; MDCK-MDR1, pH 9): 7.63 ± 1.73 ×10⁻⁶ cm/s
Papp, inhibitor (MDCK-MDR1 cells [2]; with inhibitor, pH 7.4 iso-method, ref Chang et al. (2006)): 2.04 ×10⁻⁶ cm/s
Papp, inhibitor (MDCK-MDR1 cells [2]; with inhibitor, pH 7.4 iso-method, ref Taub et al. (2005)): 1.39 ×10⁻⁶ cm/s
Papp, inhibitor (MDCK-MDR1 cells [2]; [11]): 7.5 ×10⁻⁶ cm/s
Papp, inhibitor (MDCK-MDR1 cells [2]; [12]): 1 ×10⁻⁶ cm/s
Papp, B⟶A (MDCK-MDR1 cells [2]; without inhibitor, pH 7.4 iso-method, ref Chang et al. (2006)): 15.2 ×10⁻⁶ cm/s
Papp, B⟶A (MDCK-MDR1 cells [2]; without inhibitor, pH 7.4 iso-method, ref Taub et al. (2005)): 8.15 ×10⁻⁶ cm/s
Papp, B⟶A (MDCK-MDR1 cells [2]; [13]): 35.7 ×10⁻⁶ cm/s
Papp, B⟶A (MDCK-MDR1 cells [2]; [14]): 9.75 ×10⁻⁶ cm/s
fn [5]: 100%
Factor difference (MDCK-MDR1 cells [6]; This study, Papp,B⟶A vs Papp with inhibitor): 7
Factor difference (MDCK-MDR1 cells [6]; calculated from literature Papp,B⟶A and Papp with inhibitor): 10 and 6 and 5 and 7
Papp (P-gp (MDR1) [7]): 2.53 ×10⁻⁶ cm/s

logPapp, A⟶B (MDCK-II-MDR1 cells [3]; pH 6, iso-pH method): -6.93 P in cm/s
logPapp, B⟶A (MDCK-II-MDR1 cells [3]; pH 6, iso-pH method): -5.50 P in cm/s
logPapp, A⟶B (MDCK-II-MDR1 cells [3]; pH 7.4, iso-pH method): -6.97 P in cm/s
logPapp, B⟶A (MDCK-II-MDR1 cells [3]; pH 7.4, iso-pH method): -5.39 P in cm/s
logPapp, A⟶B (MDCK-II-MDR1 cells [3]; pH 8, iso-pH method): -6.86 P in cm/s
logPapp, B⟶A (MDCK-II-MDR1 cells [3]; pH 8, iso-pH method): -5.55 P in cm/s
logPapp, A⟶B (MDCK-II-MDR1 cells [3]; pH 9, iso-pH method): -6.71 P in cm/s
logPapp, B⟶A (MDCK-II-MDR1 cells [3]; pH 9, iso-pH method): -6.37 P in cm/s
LogP0 (MDCK-II-MDR1 cells [8]): -6.3 P in cm/s
recovery (in vitro; MDCK-MDR1, pH 6): 92 to 97%
recovery (in vitro; MDCK-MDR1, pH 7.4): 98 to 108%
recovery (in vitro; MDCK-MDR1, pH 8): 83 to 98%
recovery (in vitro; MDCK-MDR1, pH 9): 60 to 71%
Papp (P-gp (MDR1) [4]; MDCK-MDR1, pH 6): 0.12 ± 0.02 ×10⁻⁶ cm/s
Papp B→A (P-gp (MDR1) [4]; MDCK-MDR1, pH 6): 3.16 ± 0.19 ×10⁻⁶ cm/s
efflux ratio (P-gp (MDR1) [4]; MDCK-MDR1, pH 6): 26.8
Papp (P-gp (MDR1) [4]; MDCK-MDR1, pH 7.4): 0.11 ± 0.02 ×10⁻⁶ cm/s
Papp B→A (P-gp (MDR1) [4]; MDCK-MDR1, pH 7.4): 4.05 ± 1.18 ×10⁻⁶ cm/s
efflux ratio (P-gp (MDR1) [4]; MDCK-MDR1, pH 7.4): 37.6
Papp (P-gp (MDR1) [4]; MDCK-MDR1, pH 8): 0.14 ± 0.04 ×10⁻⁶ cm/s
Papp B→A (P-gp (MDR1) [4]; MDCK-MDR1, pH 8): 2.8 ± 0.08 ×10⁻⁶ cm/s
efflux ratio (P-gp (MDR1) [4]; MDCK-MDR1, pH 8): 20.2
Papp (P-gp (MDR1) [4]; MDCK-MDR1, pH 9): 0.19 ± 0.08 ×10⁻⁶ cm/s
Papp B→A (P-gp (MDR1) [4]; MDCK-MDR1, pH 9): 0.43 ± 0.03 ×10⁻⁶ cm/s
efflux ratio (P-gp (MDR1) [4]; MDCK-MDR1, pH 9): 2.2
fn [5]: 84%
Structure (SMILES): COc1cc([C@@H]2c3cc4c(cc3[C@@H](O[C@@H]3O[C@@H]5CO[C@@H](C)O[C@H]5[C@H](O)[C@H]3O)[C@H]3COC(=O)[C@H]23)OCO4)cc(OC)c1O [Etoposide]
pKa [9]: 8.53
Papp, inhibitor (MDCK-MDR1 cells [2]; [11]): 0.66 ×10⁻⁶ cm/s
Papp, inhibitor (MDCK-MDR1 cells [2]; [12]): 0.3 ×10⁻⁶ cm/s
Papp, B⟶A (MDCK-MDR1 cells [2]; [13]): 10.4 ×10⁻⁶ cm/s
Papp, B⟶A (MDCK-MDR1 cells [2]; [14]): 1.8 ×10⁻⁶ cm/s

Reference: paper PMC11637191, “The pH-dependence of efflux ratios determined with bidirectional transport assays across cellular monolayers” (International Journal of Pharmaceutics: X, 2024)
